Values after ≈ are worked out from the molar mass of the structure shown.
Legend:
[1] = test system: nitrification in the soil; assay: Laboratory soil incubation, Templeton sandy loam with synthetic cow urine, nitrate-N
Procedure: A Templeton sandy loam was used in this experiment. 500 g of soil (dry weight basis) was packed into a pottle. 50 mL of synthetic cow urine with an N concentration of 7 g N/L (comprising about 87% urea-N and 13% glycine-N) was applied to the soil (equivalent to 700 kg N/ha on weight basis, assuming bulk density of 1 g/cm^3 in the top 10 cm of soil). The 700 kg N/ha application was used to simulate the urine-N application rate under a typical dairy cow urine patch in a grazed pasture.
Control treatments also added to soil were: • urine alone (50 mL); • DMSO (equivalent to 0.9 mL/500 g soil)+urine (50 mL) to determine the effect of DMSO on nitrification rate; • water alone (50 mL) (simulating areas of the soil where no urine was deposited).
Pottles were covered with lids with breathing holes to allow for gas exchange during incubation. Pottles were incubated at 12° C. Soil moisture content was maintained at field capacity by adjusting on weight basis twice a week.
Soil samples were collected and were then thoroughly mixed and subsamples were extracted in a potassium chloride solution and analysed for mineral-N. Soil moisture content was also determined. Samples were taken at 30 days after the start of incubation. […]

Nitrosomonas europaea = assay: In vitro screening of nitrite production by Nitrosomonas europaea; format: cell-based
Procedure: The phenotypic screening involved assessing the nitrification inhibition potency of the selected 5000 compounds against a key ammonia oxidizing bacterium responsible for ammonia oxidation in the soil, Nitrosomonas europaea, in 96-well microtiter plates. N. europaea cells were grown in the presence of an ammonium source, and the potential of putative nitrification inhibitors to inhibit the production of nitrite (NO2) was measured relative to untreated cells. […] Study 1-14

[2] = test system: nitrification in the soil; assay: Soil column study with static gas chambers (Study 2-14): nitrate-N and N2O emissions
Procedure: To determine the effect of treating the soil with 4-Ethynylanisole on nitrification rate and nitrous oxide emissions, soil column studies with static gas chambers were conducted. The experiment was conducted in cylindrical PVC containers (Diameter=186 mm, Height=240 mm). The containers were filled with soil to half of the container's height (120 mm), leaving 120 mm headspace. The soil was Templeton sandy loam collected from Lincoln University Research Dairy Farm. It was screened using a 5 mm sieve and air-dried to the required moisture level and packed to bulk density of 1 g/cm3.
The experiment was conducted under controlled conditions. The temperature of the soil columns were maintained at around 12° C. by using a water bath to control the temperature.
The treatments included Control (Water), Control (animal urine), Control (urine+DMSO), Control (urine+DCD at 10 kg/ha) and urine+4-Ethynylanisole (10 kg/ha) in DMSO. Synthetic cow urine was applied at 700 kg N/ha (comprising about 87% urea-N and 13% glycine-N), and 4-Ethynylanisole was applied at 10 kg/ha. There were two sets of cores for each treatment, one set were fitted with static gas chambers with removable lids for nitrous oxide sampling, and the other set used for soil sampling. The urine was sprayed to the surface of the soil simulating urine deposition by a grazing animal; DMSO, or DCD or 4-Ethynylanisole mixed with DMSO was also sprayed onto the urine treated soils to simulate the treatment of urine patches. Nitrous oxide gas measurements followed these treatments—as is detailed further below.
For the soil columns that were set up for taking soil samples for analysis of mineral nitrogen, the different treatments were mixed with the soil for soil sampling. Soil moisture was adjusted to 100% field capacity (FC) and maintained between 80 and 100% FC over the duration of the experiment.
Nitrous oxide (N2O) gas sampling was conducted twice a week using the standard procedure (Di et al., 2007). Vials were evacuated prior to sampling. Three gas samples were taken with 20 minute intervals between each sampling. Sampling frequency was reduced to once a week when N2O fluxes decreased in intensity.
Soil sampling was conducted on Day 1, 7, 14, 30, and 60. The soil samples were analysed for mineral nitrogen.

N. europaea cells = assay: Oxygen consumption rate of N. europaea whole cells (Oroboros oxygraph); format: cell-based, Nitrosomonas europaea; conditions: 25° C.
Procedure: To begin to understand the mechanism of action of 4-Ethynylanisole the oxygen consumption rate was measured utilising an Oroborus oxygraphy-2k (Oroboros Instruments). Prior to the experiment, N. europaea cells were grown in ATCC 2265 medium for four days. After which time whole cells of N. europaea were washed extensively as previously described and re-suspended in ATCC 2265 wash buffer (no ammonium) to an OD600 of 0.25. Prior to each experiment being initiated by the addition of a metabolizable energy source (ammonium or hydroxyl amine), the oxygen concentration in the assay suspension (2 ml of cells at OD600 of 0.25) was equilibrated for 2-3 min with air until a stable signal was obtained. Under normal experimental conditions this typically yielded an oxygen concentration of approximately 220 μM. After the oxygen concentration had stabilised in the Oroborus oxygraphy-2k reaction cell, rubber stoppers were subsequently inserted to enclose the system. To initiate respiration, ammonium sulphate (12.5 mM) or hydroxyl amine (6.25 mM) were injected directly into washed cell suspension of N. europaea. […] All measurements were made at 25° C. with stirring at 750 rpm and a data recording interval of 1 s^−1.

Bacillus subtilis = assay: Antimicrobial susceptibility testing (MIC plate); format: cell-based; conditions: at concentrations used in soil to inhibit nitrification
Procedure: (§1) To determine if 4-Ethynylanisole specifically targets the ammonium oxidizing bacterium N. europaea we examined the antimicrobial properties of 4-Ethynylanisole against selected bacterial species. Bacteria were routinely grown in Lysogeny broth (LB) (E. coli and B. subtilis), LB-Tween (M. smegmatis), or Rhizobium defined media (G RDM) (M. loti […]). E. coli, B. subtilis, and M. smegmatis were grown overnight (18 hr) at 37° C. with shaking (200 rpm), whereas M. loti […] was grown for 48 hr statically at 28° C. 96-well microtiter plates used for the antimicrobial susceptibility testing were set up as follows; 200 μl of media (or as appropriate) was added to column […]) and 100 μl of media was added to the remaining wells of a polystyrene 96 well plate. 4-Ethynylanisole was added to column 1 at a concentration of 512 μM (or as required) and serially diluted 2-fold (100 μl transfer) into the neighbouring wells, making sure to discard 100 μl from the last well. Thus, resulting in a serial dilution of each compound. […] Plates were incubated at either 37° C., or 28° C. (with shaking as required) for 18-48 hr before determining the MIC.

Escherichia coli = assay: Antimicrobial susceptibility testing (MIC plate); format: cell-based; conditions: at concentrations used in soil to inhibit nitrification
Procedure: as §1

Mesorhizobium loti R7A = assay: Antimicrobial susceptibility testing (MIC plate); format: cell-based; conditions: at concentrations used in soil to inhibit nitrification
Procedure: as §1

Mycobacterium smegmatis = assay: Antimicrobial susceptibility testing (MIC plate); format: cell-based; conditions: at concentrations used in soil to inhibit nitrification
Procedure: as §1

C#Cc1ccc(OC)cc1 [4-Ethynylanisole, 1-ethynyl-4-methoxybenzene]
nitrate-N concentration in the soil compared with urine alone ([1]; Study 1-14, 2 to 20 kg/ha, day 30): significantly lower nitrate-N concentrations | soil nitrate-N concentration changes with time ([1]; Study 1-14, range of rates 2, 5, 10, 20 kg/ha, days 1, 14, 30): significant inhibition of nitrate production | rate of nitrite production (OD519 nm) (Nitrosomonas europaea; 1.56 μM to 400 μM): significantly reduced | IC50 (Nitrosomonas europaea; Nitrosomonas europaea, read-out: IC50 (nitrite production reduced by half)): 2.4 µM | MIC (Nitrosomonas europaea; Nitrosomonas europaea, read-out: Minimum Inhibitory Concentration (MIC) of nitrite production): 25 to 50 µM (≈ 3.3 to 6.61 µg/mL) | N2O—N emissions lower than urine alone control ([2]; 10 kg/ha sprayed to soil surface, soil column): 93.3% | soil nitrate-N concentration compared with urine control ([2]; 10 kg/ha, day 60): significantly lower nitrate-N concentrations | nitrous oxide reduction compared with DCD ([2]; both at 10 kg/ha): much greater than that by DCD | inhibiting nitrate production compared with DCD ([2]; both at 10 kg/ha, day 60): much more potent than DCD | ammonium-driven oxygen consumption (N. europaea cells; ammonium sulphate 12.5 mM): reduced to zero | hydroxylamine (H3NO)-driven oxygen consumption (N. europaea cells; hydroxyl amine 6.25 mM): not affected | inhibition of bacterial growth (Bacillus subtilis): did not inhibit | inhibition of bacterial growth (Escherichia coli): did not inhibit | inhibition of bacterial growth (Mesorhizobium loti R7A): did not inhibit | inhibition of bacterial growth (Mycobacterium smegmatis): did not inhibit

Reference: US11578013B2, “Nitrification inhibitors” (Lincoln University, priority 2020, dated 2023)
